Assay results: patent US20260166160A1, “PROTACS TARGETING VIRAL ENZYMES FOR PRECISE TREATMENT OF COVID-19” (Ohio University, priority 2022, published 2026)
pEC50: −log10 of the molar value. Where two headings read alike, the source gives them in different places.

Tests used:
Mpro = Mpro (Severe acute respiratory syndrome coronavirus 2, UniProt P0DTD1); assay: Mpro degradation in HEK293 cells stably expressing wild-type Mpro (tetracycline-inducible), Western Blot with anti-T7 antibodies; format: cell-based, SARS-CoV-2; conditions: for remaining activity at 0.5 µM: HEK293, 24 h, read-out: Mpro (relative concentration)
Source text: To evaluate the degradation activity of MP-C-4N (initially, and additional PROTAC compounds later), a Mpro expression system was constructed in mammalian cells. A cell line stably expressing wild-type Mpro was constructed. According to the RNA sequence of wild-type Mpro, the corresponding DNA sequence was synthesized and codon-optimzied to be suitable for expression in HEK293 cells. After investigating the influence of different expression vectors and promoters on the protein expression level, pCW57.1-TetOn was selected as the expression vector, which contains a tetracycline-inducible promoter, and the target protein expression can be started or closed by controlling the content of tetracycline. With this cell line, the process of expressing MPro during virus infection in human cells was successfully simulated. This model was used to successfully test the degradation ability of candidate compounds on the target protein. Specifically, the cells were treated with doxycycline (1 μg/mL) for 12 h. After removing doxycycline, the cells were treated with PROTACs with indicated concentrations for 24 h and then harvested. The expression of Mpro was determined by Western Blot (WB) analysis using anti-T7 antibodies.

[1] = tested on: human coronavirus OC43 (HCoV-OC43); assay: Anti-virus activity, HCoV-OC43 plaque formation in RD cells
[2] = compound at 500 nM, control 100%, Tables 1-3
[3] = Betacoronavirus 1, OC43, RD, RD cells infected with HCoV-OC43, 33° C., 4-5 days, plaque areas, Tables 7-11

| Compound | remaining activity at 0.5 µM (Mpro) | pEC50 ([1]; Betacoronavirus 1, OC43, RD) | other results |
| --- | --- | --- | --- |
| CC(C)C[C@H](NC(=O)[C@@H](NC(=O)[C@H](C)NC(=O)CCOCCOCCNc1cccc2c1C(=O)N(C1CCC(=O)NC1=O)C2=O)C(C)C)C(=O)N[C@H](C#N)C[C@@H]1CCNC1=O (some centres unmarked) [MP-39] | – | – | remaining activity at 0.5 µM (Mpro; [2]): 40%; pEC50 [1, 3]: 6.63 |
| CC(C)C[C@H](NC(=O)[C@@H](NC(=O)[C@H](C)NC(=O)CCOCCOCCOCCOCCNc1cccc2c1C(=O)N(C1CCC(=O)NC1=O)C2=O)C(C)C)C(=O)N[C@H](C#N)C[C@@H]1CCNC1=O (some centres unmarked) [MP-42] | – | – | remaining activity at 0.5 µM (Mpro; [2]): 70%; pEC50 [1, 3]: 6.39 |
| Cc1ccc(NC(=O)c2ccc(CN3CCN(C(=O)CCOCCOCCOCCNc4cccc5c4C(=O)N(C4CCC(=O)NC4=O)C5=O)CC3)cc2)cc1Nc1nc(-c2cccnc2)cs1 (centres unmarked) [MP-20] | 28% | 6.51 | – |
| CC(C)C[C@H](NC(=O)[C@@H](NC(=O)[C@H](C)NC(=O)CCOCCOCCOCCNc1cccc2c1C(=O)N(C1CCC(=O)NC1=O)C2=O)C(C)C)C(=O)N[C@H](C#N)C[C@@H]1CCNC1=O (some centres unmarked) [MP-41] | – | – | remaining activity at 0.5 µM (Mpro; [2]): 45%; pEC50 [1, 3]: 6.49 |
| Cc1ccc(NC(=O)c2ccc(CN3CCN(C(=O)CCOCCOCCOCCOCCOCCNc4cccc5c4C(=O)N(C4CCC(=O)NC4=O)C5=O)CC3)cc2)cc1Nc1nc(-c2cccnc2)cs1 (centres unmarked) [MP-22] | 75% | 6.21 | – |
| CC(C)C[C@H](NC(=O)[C@@H](NC(=O)[C@H](C)NC(=O)CCOCCNc1cccc2c1C(=O)N(C1CCC(=O)NC1=O)C2=O)C(C)C)C(=O)N[C@H](C#N)C[C@@H]1CCNC1=O (some centres unmarked) [MP-38] | – | – | remaining activity at 0.5 µM (Mpro; [2]): 50%; pEC50 [1, 3]: 6.42 |
| O=C(CCOCCOCCOCCOCCOCCNc1cccc2c1C(=O)N(C1CCC(=O)NC1=O)C2=O)NCCn1cc(NC(=O)c2c(Cl)cccc2Cl)c(C(=O)NC2CCNCC2)n1 (centres unmarked) [MP-32] | 80% | 6.08 | – |
| Cc1ccc(NC(=O)c2ccc(CN3CCN(C(=O)CCOCCOCCNc4cccc5c4C(=O)N(C4CCC(=O)NC4=O)C5=O)CC3)cc2)cc1Nc1nc(-c2cccnc2)cs1 (centres unmarked) [MP-19] | 32% | 6.50 | – |
| CC(C)C[C@H](NC(=O)[C@@H](NC(=O)[C@H](C)NC(=O)CCOCCOCCNc1cccc2c1C(=O)N(C1CCC(=O)NC1=O)C2=O)C(C)C)C(=O)N[C@H](C#N)C[C@@H]1CCNC1=O (some centres unmarked) [MP-40] | – | – | Mpro (relative concentration) (Mpro; [2]): 25%; pEC50 ([1]; RD cells infected with HCoV-OC43, 33° C., 4-5 days, plaque areas, Tables 7-11): 6.65 |
| CC(C)C1CCN(C(=O)[C@@H](NC(=O)[C@H](C)NC(=O)CCOCCOCCOCCNc2cccc3c2C(=O)N(C2CCC(=O)NC2=O)C3=O)C(C)(C)C)C1C(=O)N[C@H](C#N)CC1CCNC1=O (some centres unmarked) [MP-C-4N] | – | – | concentration at which degradation of Mpro was detected (Mpro; WB, cells treated 24 h, FIG. 55): 0.5 to 1.0 µM; concentration dependence of Mpro degradation activity (Mpro; WB, FIG. 55): concentration-dependent |
| Cc1ccc(NC(=O)c2ccc(CN3CCN(C(=O)CCOCCOCCOCCOCCNc4cccc5c4C(=O)N(C4CCC(=O)NC4=O)C5=O)CC3)cc2)cc1Nc1nc(-c2cccnc2)cs1 (centres unmarked) [MP-21] | 52% | 6.32 | – |
| O=C(CCOCCNc1cccc2c1C(=O)N(C1CCC(=O)NC1=O)C2=O)NCCn1cc(NC(=O)c2c(Cl)cccc2Cl)c(C(=O)NC2CCNCC2)n1 (centres unmarked) [MP-28, 4-(2,6-dichlorobenzamido)-1-(2-(3-(2-((2-(2,6-dioxopiperidin-3-yl)-1,3-dioxoisoindolin-4-yl)amino)ethoxy)propanamido)ethyl)-N-(piperidin-4-yl)-1H-pyrazole-3-carboxamide] | 33% | 6.50 | – |
| O=C(CCOCCOCCNc1cccc2c1C(=O)N(C1CCC(=O)NC1=O)C2=O)NCCn1cc(NC(=O)c2c(Cl)cccc2Cl)c(C(=O)NC2CCNCC2)n1 (centres unmarked) [MP-29] | 40% | 6.42 | – |
| O=C(CCOCCOCCOCCNc1cccc2c1C(=O)N(C1CCC(=O)NC1=O)C2=O)NCCn1cc(NC(=O)c2c(Cl)cccc2Cl)c(C(=O)NC2CCNCC2)n1 (centres unmarked) [MP-30] | 52% | 6.36 | – |
| O=C(CCOCCOCCOCCOCCNc1cccc2c1C(=O)N(C1CCC(=O)NC1=O)C2=O)NCCn1cc(NC(=O)c2c(Cl)cccc2Cl)c(C(=O)NC2CCNCC2)n1 (centres unmarked) [MP-31] | 65% | 6.28 | – |
| Cc1ccc(NC(=O)c2ccc(CN3CCN(C(=O)CCOCCNc4cccc5c4C(=O)N(C4CCC(=O)NC4=O)C5=O)CC3)cc2)cc1Nc1nc(-c2cccnc2)cs1 (centres unmarked) [MP-18, 4-((4-(3-(2-((2-(2,6-dioxopiperidin-3-yl)-1,3-dioxoisoindolin-4-yl)amino)ethoxy)propanoyl)piperazin-1-yl)methyl)-N-(4-methyl-3-((4-(pyridin-3-yl)thiazol-2-yl)amino)phenyl)benzamide] | 45% | 6.47 | – |
